From patent US11406622B2, “Glaucocalyxin a derivative, pharmaceutically acceptable salt thereof, or pharmaceutical composition thereof and uses thereof in preparation of drugs for treating psoriasis” (SUZHOU PHARMAVAN CO., LTD., priority 2017, dated 2022)
“And” between values parts separate entries of the source, which are not always exact repeats. Equal values may be shown once.

Assays:
mouse spleen lymphocytes = test: ConA-induced proliferation of mouse spleen lymphocytes, MTT (Example 8); type: cell-based; conditions: 48 h, 5 μg/mL ConA
Procedure: In this example, the glaucocalyxin A derivatives and pharmaceutically acceptable salts thereof were detected for the effect thereof on ConA-induced proliferation of mouse spleen lymphocytes.
2×10^7/mL cell suspension was prepared and a 5 μg/μL ConA stock solution was added thereto at a final concentration of 5 μg/mL. The resulting mixture was inoculated into a 96-well culture plate at 0.1 mL per well. Then 0.1 mL of test compound at different concentrations was added to each well. Triplicate or quadruplicate wells were set up for each group, and a vehicle control group (without compound), a stimulant control group (with ConA, without compound, and without vehicle), a cell control group (without ConA, without compound, and without vehicle), and a blank medium control group (without cells, a well for null adjustment) were also set up, and cultured at 37° C., 5% CO2 for 48 h. MTT solution at 5 mg/mL was added at 20 μl per well, and cultured for an additional 4 hours. The culture plate was taken out and centrifuged at 1000 rpm for 10 min. The supernatant of each well was aspirated, and 100 μL of SDS cell lysis solution was added to each well, and cultured overnight. On the next day, the absorbance at 550 nm (OD550nm) was measured on an enzyme-linked immunoassay analyzer. The results were expressed as the mean OD550nm value of the triplicates or quadruplicates±standard deviation (x±sd). SPSS software version 17.0 was used for statistical analysis of the mean values, that is, the vehicle group was compared with the stimulant group, and the test group of each compound concentration was compared with the corresponding vehicle control group. The cell survival rate of each group was calculated according to the mean value for the compound treatment group and the mean value for the vehicle control group, that is, the cell survival rate (%)=the mean value for the compound treatment group/the mean value for the vehicle control group×100%. A linear regression equation was obtained by plotting the cell survival rate of each group against the concentration of the test compound, statistical test of the correlation coefficient was conducted, and then the IC50 value was determined.

BALB/c mice = test: Acute toxicity in BALB/c mice, single tail-vein injection (Example 9); type: in vivo, mouse; conditions: single intravenous injection
Description: In this example, Compound 23 and Compound 24 were detected for their acute toxicities, and the detection method was as follows.
Experimental procedure: 40 BALB/c mice, half male and half female, were randomly divided into groups after weight measurement. The weight of an individual should be within the range of the average body weight±20%. Animals should be allowed to acclimatize to the environment for at least 5 days before the test, and healthy (if female, it must be un-pregnant) mice were selected as test animals. The main inspections during the acclimatization period included: whether it met the quality indicators required at the time of ordering; general state check; and whether the weight reached the weight range required by the test. Unqualified abnormal animals were not included in this test. A single tail-vein injection was administrated to the mice at a low, medium, or high dose, which was 5 mg/kg, 10 mg/kg, or 40 mg/kg respectively according to a blank preparation pre-test. An equal volume of vehicle was intravenously injected to establish a control group.
Mice were observed once respectively at 0 to 2 hours and 4 to 6 hours after each administration. If toxic symptoms occurred, the number of observations could be increased. (2) Gross anatomy observation: All the surviving mice in each group were dissected and observed on the 8th day of the experiment. The abnormal organs and tissues found in the observation of administration sites and in the gross anatomy observation that might be related to the test samples were photographed and recorded. (3) Disposal of dying animals: The state of the mouse and the observation time were recorded, and the body weight was measured. (4) Disposal of dead animals: The time of death or the time when the death was found was recorded, the body weight was measured, and then the dissection was quickly performed for gross observation to speculate the cause of death.

With `Br.C=C1C(=O)C23C(O)CC4C(C)(C)c5nc(N(C)C)sc5CC4(C)C2CCC1C3O` (centres unmarked) [Compound 23] the “OD550nm value (x ± sd)” value (mouse spleen lymphocytes; 0.78125 μg/mL) was 1.14, the “Survival rate (%)” value (mouse spleen lymphocytes; 0.78125 μg/mL) was 98% and the “OD550nm value (x ± sd)” value (mouse spleen lymphocytes; 1.5625 μg/mL) was 1.18. For the same molecule, the “Survival rate (%)” value (mouse spleen lymphocytes; 1.5625 μg/mL) was 101%, the “OD550nm value (x ± sd)” value (mouse spleen lymphocytes; 3.125 μg/mL) was 0.52 and the “Survival rate (%)” value (mouse spleen lymphocytes; 3.125 μg/mL) was 45%. For the same molecule, the “OD550nm value (x ± sd)” value (mouse spleen lymphocytes; 6.25 μg/mL) was 0.29, the “Survival rate (%)” value (mouse spleen lymphocytes; 6.25 μg/mL) was 25% and the “OD550nm value (x ± sd)” value (mouse spleen lymphocytes; 12.5 μg/mL) was 0.07. The “Survival rate (%)” value (mouse spleen lymphocytes; 12.5 μg/mL) was 6%, the “OD550nm value (x ± sd)” value (mouse spleen lymphocytes; 25 μg/mL) was 0.02 and the “Survival rate (%)” value (mouse spleen lymphocytes; 25 μg/mL) was 2%. The “OD550nm value (x ± sd)” value (mouse spleen lymphocytes; 50 μg/mL) was 0.02, the “Survival rate (%)” value (mouse spleen lymphocytes; 50 μg/mL) was 2% and the “OD550nm value (x ± sd)” value (mouse spleen lymphocytes; 100 μg/mL) was 0.02. For the same molecule, the “Survival rate (%)” value (mouse spleen lymphocytes; 100 μg/mL) was 1%, the IC50 (mouse spleen lymphocytes; linear regression) was ~9.41 µM and 9.41 µM and the “IC50 (μg/mL)” value (mouse spleen lymphocytes; linear regression) was “IC50 = 4.00 μg/mL”. For the same molecule, the “effect on ConA-induced proliferation of mouse spleen lymphocytes (in words)” value (mouse spleen lymphocytes; range of concentrations tested) was “significant effect”, the comparative safety (BALB/c mice) was “safer than Compound 24” and the toxic side effects (BALB/c mice; 5 mg/kg) was “No obvious toxic side effects”. The “weight loss and decreased diet” value (BALB/c mice; 5 mg/kg) was “no significant weight loss and decreased diet”, the toxic side effects (BALB/c mice; 10 mg/kg) was “No obvious toxic side effects” and the “weight loss and decreased diet” value (BALB/c mice; 10 mg/kg) was “no significant weight loss and decreased diet”. The toxic side effects (BALB/c mice; 40 mg/kg) was “No obvious toxic side effects” and the “weight loss and decreased diet” value (BALB/c mice; 40 mg/kg) was “no significant weight loss and decreased diet”.
